In ChEMBL document CHEMBL1142962, “Antiproliferative prenylated stilbenes and flavonoids from Macaranga alnifolia from the Madagascar rainforest” (J Nat Prod, 2007) one finds IC50 data, which are given here for three molecules.

This test relates to A2780 (human ovarian cancer). Nature of the test: Antiproliferative activity against drug-sensitive human A2780 cells.

Usually IC50 stands for the concentration at which inhibition is half-maximal. In the case of `CC(C)=CCC/C(C)=C/Cc1c(O)cc2c(c1O)C(=O)C[C@@H](c1ccc(O)cc1)O2` [BONANNIONE A], the IC50 is 24.5 µM.

Turning to `CC(C)=CCc1c(O)cc(/C=C/c2cc(O)c3c(c2)C[C@@H]2C(C)(C)[C@H](O)CC[C@@]2(C)O3)cc1O` [SCHWEINFURTHIN G], the IC50 stood at 0.39 µM.

As for `CC(C)=CCC/C(C)=C/Cc1c(O)cc2c(c1O)C(=O)[C@H](O)[C@@H](c1ccc(O)c(O)c1)O2` [DIPLACOL], the IC50 stood at 11.5 µM.
